Converted amounts (≈) assume the structure as drawn. “Also recorded” adds a separate entry of the source. Where two headings read alike, the source gives them in different places. Square brackets hold non-standard residues; d marks the D form. Peptide text beside a SMILES is read from it. * marks the point of attachment. Lauroyl = CCCCCCCCCCCC(=O)*; Octanoyl = CCCCCCCC(=O)*; Aun = NCCCCCCCCCCC(=O)O
What was measured:
[1] = test system: HaCaT cell line; settings: 24 h
Protocol: Cytotoxicity was measured by the MTT assay on human immortalized epidermal keratinocyte HaCaT cell line (DKFZ, Eppelheim, Germany). The HaCaT cells were grown in high-glucose Dulbecco’s modified Eagle’s medium (DMEM) (Sigma-Aldrich, Milan, Italy). DMEM medium was supplemented with 10% foetal bovine serum (FBS; Sigma, Milan, Italy), 2 mM glutamine (Sigma, Milan, Italy), 100 U/mL penicillin (Sigma, Milan, Italy) and 100 µg/mL streptomycin (Sigma, Milan, Italy). The cells were maintained at 37 °C in the presence of 5% CO2 and in a humidified incubator.
Cells were counted in a Burker-Türk chamber to prepare a suspension of 2 × 10^5 cells/ml in DMEM High Glucose Complete Medium (Sigma-Aldrich, Milan, Italy). 100 μL of this suspension was added to the wells of a 96-well flat-bottom transparent microtiter plate (Euroclone, Milan, Italy) specially treated for tissue culture. The plate was incubated for 24 h at 37 °C and 5% CO2 to allow the cells in each well to reach a semiconfluent state. The following day, serial dilutions (1:2) of the peptides, starting with 64 μM, were prepared in DMEM medium, and 100 μL of these solutions were used to replace the medium in the plate with HaCaT cells. The same amount of untreated DMEM high-glucose medium was used as a cell growth control. DMEM high-glucose complete medium (100 μL) was used as a negative control to check the sterility of the medium. The plate was sealed with Parafilm to minimize evaporation and incubated at 37 °C and 5% CO2 for 20 h. Then, 25 μL MTT (Sigma-Aldrich, Milan, Italy) dissolved in phosphate-buffered saline (PBS) was added to each well to a final concentration of 1 mg/mL MTT, and the plate was incubated for 4 h in the dark at 37 °C and 5% CO2.
At the end of incubation, 100 μL 10% (w/v) Igepal (Sigma-Aldrich, Milan, Italy) in 10 mM HCl was added to each well, and the plate was incubated overnight in the dark at 37 °C and 5% CO2. The absorbance of MTT at 570 nm was measured using a Nanoquant Infinite-M200Pro plate reader (Tecan, Männedorf, Switzerland). Student’s t-test was performed for all samples.

[2] = 4h and 24 h incubation, different concentrations
[3] = test system: A.baumanni ATCC 19606; assay type: cell-based, Acinetobacter baumannii; settings: ATCC 19606, 18 h
Protocol: (§1) The bacterial strains used were Escherichia coli ATCC 25922, Staphylococcus aureus ATCC 25923, Klebsiella pneumoniae ATCC 700603, Acinetobacter baumannii ATCC 19606, Pseudomonas aeruginosa ATCC 27853 and Staphylococcus epidermidis ATCC 12228. The reference bacterial strains used were purchased from American Type Culture Collection (ATCC) (Manassas, Virginia, USA). They were grown overnight (o/n) at 37 °C in complete Müller-Hinton broth (MHB, Difco) medium with shaking (130 rpm). The day after, the overnight bacterial cultures were diluted in fresh MHB (300 μL o/n culture in 10 mL) and incubated at 37 °C with shaking (130 rpm) for approximately 2 h (mid-log phase) until reaching an optical density (OD) at 600 nm (OD600) ≈ 0.3.
(§2) Peptides diluted in MHB to a concentration of 128 μM were added to the first column of wells of a 96-well round-bottom microtiter plate (Sarstedt, Milan, Italy) and serially diluted (1:2) in a final volume of 50 μL MHB was added to the next wells. Then, a mid-log bacterial cultures (OD 600≈ 0.3) were diluted to 5 × 10^5 colony-forming units (CFU)/mL in MHB and 50 μL of this bacterial suspension was added to each well. In this way, the final bacterial concentration was reduced to 2.5 × 10^5 CFU/mL and the peptide concentration in the wells was also halved in a final volume of 100 μL (final bacteria load was 2.5 × 10^4 CFU/well). The same amount of untreated bacteria in MHB was used as a control for bacterial growth. […] MIC was determined by visual inspection at the end of incubation as the first clear well. Data are reported as moda of independent experiments repeated three times or four times in case of uncertain values.

[4] = test system: E.coli ATCC 25922; assay type: cell-based, Escherichia coli; settings: ATCC 25922, 18 h
Protocol: as §1, §2

[5] = test system: K.pneumoniae ATCC 700603; assay type: cell-based, Klebsiella pneumoniae; settings: ATCC 700603, 18 h
Protocol: as §1, §2

[6] = test system: S.epidermidis ATCC 12228; assay type: cell-based, Staphylococcus epidermidis; settings: ATCC 12228, 18 h
Protocol: as §1, §2

[7] = Hydrophobicity by RP-HPLC retention time; assay type: physicochemical; settings: for Retention time tR: used as measure of hydrophobicity, RP-HPLC, Phenomenex Luna C18 (100 Å, 5µ), linear gradient 5%B to 95%B over 30 min, A 0.1% TFA in 9:1 water:acetonitrile, B 0.1% TFA in 9:1 acetonitrile:water, 1 mL/min, peptide 0.5 mg/mL in MeOH, UV 215 and 280 nm; for Hydrophobicity ΔtR: ΔtR = tR(x)−tR(a), relative to compound a, RP-HPLC C18, 5%–95%B over 30 min
Protocol: Peptide hydrophobicity was calculated as difference in retention times between peptide analogues b–h and peptide a. Each peptide was dissolved in MeOH to a concentration of 0.5 mg/mL and then subjected to RP-HPLC on an analytical Phenomenex Luna C18 (100 Å, 5µ) column using 0.1% TFA in 9:1 water:acetonitrile as solvent A, and 0.1% TFA in 9:1 acetonitrile:water as solvent B. The peptides were eluted using a linear gradient as follows: 5%B to 95%B over 30 min. The flow rate was 1 mL/min and the absorbance was measured at 215 nm and 280 nm. The retention time was recorded for each peptide.

[8] = test system: S.aureus ATCC 25923; assay type: cell-based, Staphylococcus aureus
Protocol: as §1, §2

[9] = test system: P.aeruginosa ATCC 27853; assay type: cell-based, Pseudomonas aeruginosa; settings: ATCC 27853, 18 h
Protocol: as §1, §2

[10] = test system: ram red blood cells (RBCs); settings: 4% v/v ram RBCs in PBS, 1 h, 37 °C, absorbance 540 nm, 100% = 1% Triton X-100; all concentrations tested; n = 3
Protocol: The lytic potential towards eukaryotic cell membranes was assessed by measuring the release of haemoglobin from commercial ram red blood cells (RBCs) (Microbiol s.r.l., Cagliari, Italy) after exposure to the peptides. First, erythrocytes were isolated by centrifugation, washed with PBS and then suspended at 8% (v/v) in PBS. Secondly, 100 µL erythrocytes suspension was added into each well of a 96-well microplate. Then, 100 µL peptide solution was added to each well at different concentrations (the final concentration of erythrocytes suspension was 4% v/v), and the plates were incubated for 1 h at 37 °C and centrifuged at 1000 g for 10 min. Finally, 100 µL aliquots of supernatant were transferred to fresh 96-well microplate, and the release of haemoglobin was monitored by measuring the absorbance at 540 nm with Tecan microplate reader (Tecan Trading AG, Switzerland). 0% and 100% haemolysis were determined in PBS and 1% Triton X-100, respectively.

[11] = test system: chymotrypsin; assay: chymotrypsin (Sigma–Aldrich), 1.25 µg of enzyme in 150 µl buffer; Tris·HCl 50 mM, pH 7.8; settings: 37 °C, up to 24 h
[12] = test system: E. coli, A. baumannii, K. pneumoniae, P. aeruginosa, and S. epidermidis strains; assay type: cell-based; settings: 18 h
Protocol: as §1, §2

Molecule | MIC [3] [µM] | MIC [4] [µM] | MIC [5] [µM] | MIC [6] [µM] | MIC [9] [µM] | cleaved bond [11] | other results
CCCCCCCC(=O)N[C@@H](CCCCN)C(=O)N[C@@H](CCCNC(=N)N)C(=O)N[C@@H](CC(C)C)C(=O)N[C@@H](CCCCN)C(=O)N[C@@H](CCCCN)C(=O)N[C@H](C(=O)NCC(=O)N[C@@H](CCCCN)C(=O)N[C@H](C(=O)N[C@@H](CC(C)C)C(=O)N[C@@H](CCCCN)C(=O)N[C@@H](Cc1c[nH]c2ccccc12)C(=O)N[C@H](C(=O)N[C@@H](C)C(=O)N[C@@H](CCCCN)C(=O)N[C@H](C(=O)N[C@H](C(=O)NCC(=O)N[C@@H](CO)C(=O)N[C@H](C(N)=O)[C@@H](C)CC)C(C)C)[C@@H](C)CC)[C@@H](C)CC)C(C)C)[C@@H](C)CC [c] (Octanoyl-KRLKKIGKVLKWIAKIVGSI-NH2) | 8 (≈ 19.2 µg/mL) | 16 (≈ 38.5 µg/mL) | 16 (≈ 38.5 µg/mL) | 8 (≈ 19.2 µg/mL) | 32 (≈ 76.9 µg/mL) |  | HC50 (cytotoxicity on HaCaT cells) [1]: < 32 µM; solubility in Müller-Hinton broth [2]: low solubility; Retention time tR [7]: 22.3 min; Hydrophobicity ΔtR [7]: 9.1; MIC ([8]; ATCC 25923, 18 h): 16 µM (≈ 38.5 µg/mL); membranolytic (haemolytic) effect on erythrocytes [10]: significant lytic effect
CCCCCCCCCCCC(=O)N[C@@H](CCCCN)C(=O)N[C@@H](CCCNC(=N)N)C(=O)N[C@@H](CC(C)C)C(=O)N[C@@H](CCCCN)C(=O)N[C@@H](CCCCN)C(=O)N[C@H](C(=O)NCC(=O)N[C@@H](CCCCN)C(=O)N[C@H](C(=O)N[C@@H](CC(C)C)C(=O)N[C@@H](CCCCN)C(=O)N[C@@H](Cc1c[nH]c2ccccc12)C(=O)N[C@H](C(=O)N[C@@H](C)C(=O)N[C@@H](CCCCN)C(=O)N[C@H](C(=O)N[C@H](C(=O)NCC(=O)N[C@@H](CO)C(=O)N[C@H](C(N)=O)[C@@H](C)CC)C(C)C)[C@@H](C)CC)[C@@H](C)CC)C(C)C)[C@@H](C)CC [d] (Lauroyl-KRLKKIGKVLKWIAKIVGSI-NH2) | 16 (≈ 39.4 µg/mL) | >32 | 32 (≈ 78.7 µg/mL) | 32 (≈ 78.7 µg/mL) | >32 |  | HC50 (cytotoxicity on HaCaT cells) [1]: < 32 µM; solubility in Müller-Hinton broth [2]: low solubility; Retention time tR [7]: 22.8 min; Hydrophobicity ΔtR [7]: 9.6; MIC ([8]; ATCC 25923, 18 h): 32 µM (≈ 78.7 µg/mL); membranolytic (haemolytic) effect on erythrocytes [10]: significant lytic effect
CC[C@H](C)[C@H](NC(=O)[C@H](CO)NC(=O)CNC(=O)[C@@H](NC(=O)[C@@H](NC(=O)[C@H](CCCCN)NC(=O)[C@H](C)NC(=O)[C@@H](NC(=O)[C@H](Cc1c[nH]c2ccccc12)NC(=O)[C@H](CCCCN)NC(=O)[C@H](CC(C)C)NC(=O)[C@@H](NC(=O)[C@H](CCCCN)NC(=O)CNC(=O)[C@@H](NC(=O)[C@H](CCCCN)NC(=O)[C@H](CCCCN)NC(=O)[C@H](CC(C)C)NC(=O)[C@H](CCCNC(=N)N)NC(=O)[C@H](CCCCN)NC(C)=O)[C@@H](C)CC)C(C)C)[C@@H](C)CC)[C@@H](C)CC)C(C)C)C(=O)NCCCCCCCCCCC(N)=O [f] (Ac-KRLKKIGKVLKWIAKIVGSI[Aun]-NH2) | 4 (≈ 10 µg/mL) | 8 (≈ 20 µg/mL) | 16 (≈ 40.1 µg/mL) | 8 (≈ 20 µg/mL) | 16 (≈ 40.1 µg/mL) |  | HC50 (cytotoxicity on HaCaT cells) [1]: < 32 µM; MIC ([8]; ATCC 25923, 18 h): 8 µM (≈ 20 µg/mL); membranolytic (haemolytic) effect on erythrocytes [10]: significant lytic effect
Ac-KRLKKIGKVLKWI-NH2 |  |  |  |  |  | Leu21-Lys22, first_seen, within a 30-min incubation | 
Ac-KRLKKIGKVLKWIAKIVGSI-NH2 |  |  |  |  |  | Leu21-Lys22, first_seen, within a 30-min incubation; also recorded: Leu14-Lys15, after longer incubation times; also recorded: Trp23-Ile24, after longer incubation times | 
Ac-KRLKKIGKVLKWIAKIVGSI[Aun]-NH2 (SMILES CC[C@H](C)[C@H](NC(=O)[C@H](CO)NC(=O)CNC(=O)[C@@H](NC(=O)[C@@H](NC(=O)[C@H](CCCCN)NC(=O)[C@H](C)NC(=O)[C@@H](NC(=O)[C@H](Cc1c[nH]c2ccccc12)NC(=O)[C@H](CCCCN)NC(=O)[C@H](CC(C)C)NC(=O)[C@@H](NC(=O)[C@H](CCCCN)NC(=O)CNC(=O)[C@@H](NC(=O)[C@H](CCCCN)NC(=O)[C@H](CCCCN)NC(=O)[C@H](CC(C)C)NC(=O)[C@H](CCCNC(=N)N)NC(=O)[C@H](CCCCN)NC(C)=O)[C@@H](C)CC)C(C)C)[C@@H](C)CC)[C@@H](C)CC)C(C)C)C(=O)NCCCCCCCCCCC(N)=O) |  |  |  |  |  | Leu21-Lys22, first_seen, within a 30-min incubation; also recorded: Trp23-Ile24, first_seen, within a 30-min incubation; also recorded: Leu14-Lys15, after longer incubation times | 
Ac-KRLKKIGKVLKWIPPIVGSI-NH2 |  |  |  |  |  | Leu21-Lys22, first_seen, within a 30-min incubation | 
Ac-KRLKKIGKVLKWIPPIVGSI-NH2 [a] | 1 | 2 | 1 | 2 | 4 |  | MIC, span over all tested bacterial strains except S. aureus [12]: 1 to 4 µM; Retention time tR [7]: 13.2 min; Hydrophobicity ΔtR [7]: 0; MIC ([8]; S.aureus ATCC 25923, Mueller–Hinton broth, 18 h, 37 °C, 2.5 × 10^5 CFU/mL, visual, mode of three independent tests): 64 µM
Ac-KRLKKIGKVUKWI-NH2 |  |  |  |  |  | Leu14-Lys15, within a 30-min incubation; also recorded: Trp23-Ile24, after longer incubation times | 
Lau-KRLKKIGKVLKWIAKIVGSI-NH2 |  |  |  |  |  | Trp23-Ile24, after longer incubation times; also recorded: Leu21-Lys22, first_seen, within a 30-min incubation; also recorded: Leu14-Lys15, after longer incubation times | 
Oct-KRLKKIGKVLKWIAKIVGSI-NH2 |  |  |  |  |  | Leu21-Lys22, first_seen, within a 30-min incubation; also recorded: Trp23-Ile24, first_seen, within a 30-min incubation; also recorded: Leu14-Lys15, within a 30-min incubation | 
Pal-KRLKKIGKVLKWIAKIVGSI-NH2 |  |  |  |  |  | Leu14-Lys15, after longer incubation times; also recorded: Leu21-Lys22, after longer incubation times; also recorded: Trp23-Ile24, after longer incubation times | 
